Experiments:
⍺4β7 = assay: SPR binding kinetics: recombinant ⍺4β7 passed over ligand-coated surfaces (S1 Table); conditions: SPR Biacore 3000, ligand immobilized, ⍺4β7 analyte, HBS pH 7.4, 1 mM MnCl2, 25°C
Method: To measure the specific affinity of CD4–⍺4β7 interactions we developed a surface plasmon resonance (SPR) -based assay in which recombinant ⍺4β7 was passed over a surface coated with a 23 kD D1D2 protein (aa 1–183). For comparison we prepared surfaces with recombinant MAdCAM-Ig, VCAM-Ig, monomeric gp120, and a SOSIP env trimer (S1 Table). Assays were carried out in the presence of MnCl2 to present ⍺4β7 in an active conformation. […] This rate of dissociation was similar to that of both MAdCAM-Ig and VCAM-Ig with ⍺4β7 and is indicative of a relatively high-affinity interaction.
Experiments were performed using a Biacore 3000 instrument (Cytiva Life Sciences) using CM4 or CM5 sensor chips. The data were evaluated using BIAevaluation 4.1.1 software (Cytiva Life Sciences). The chip surface was activated by injecting 35 μl of a 1:1 mixture of 0.05 M N-hydroxysuccinimide and 0.2 M N-ethyl-N-(dimethylaminopropyl) carbodiimide at 5 μl/min. NeutrAvidin, HIV gp120, sCD4 (D1D2) or Hu-MAdCAM-Ig (R&D Systems) at concentrations of 5 μg/ml in 10mM NaOAc, pH 4.5, were immobilized to 250–750 resonance units (RU). After the proteins were immobilized to the desired densities, unreacted sites were blocked with 35 μl of 1 M Tris-HCl (pH 8.0). Biotinylated cyclic V2 peptides (1 μg/ml in 20 mM Tris-HCl, pH 8.0) were bound to the NeutrAvidin surfaces to densities of approximately 250–300 RU. One surface was activated and blocked without ligand as a control surface for non-specific binding. Signal from the control surface was subsequently subtracted. Running buffer was HBS (pH 7.4), 1 mM MnCl2, 0.005% Tween- 20, 0.05% soluble carboxymethyl-dextran. Binding experiments were carried out at a flow rate of 25 μl/min at 25°C. After a 2 min injection, the surface was washed for an additional 2 min in running buffer allowing dissociation of the bound ligand from the surface. The surfaces were regenerated by multiple injections of 4.5 M MgCl2 at a flow rate of 100 μl/min. Inhibition of ⍺4β7 binding by linear V2-loop and CD4 derived peptides was carried out by pre-incubating ⍺4β7 with the peptides in running buffer at the indicated concentrations for 2 hours at room temperature prior to passing them over the prepared surfaces as described above. Cross-inhibition experiments were performed by passing either buffer or the listed analytes over a surface to which sCD4 (D1D2) had been immobilized, followed by a secondary sequential injection of ⍺4β7. The ability of each analyte to inhibit either itself or ⍺4β7 was determined by comparing the binding of ⍺4β7 in the absence or presence of the listed pre-bound analytes as previously described. Illustration of the dynamic range of range of linear peptide inhibition assays is provided in S4 Fig.

⍺4β7 on RPMI8866 cells = assay: Flow cytometry: ligand staining of ⍺4β7-expressing cells in buffers with different divalent cations; assay type: binding, human; conditions: absence of divalent cations (0.1 mM EDTA)
Excerpt: Fig 1 Binding of soluble CD4 to ⍺4β7 on CD4^+ T cells. (A) Schematic of D1D2-Ig⍺tp. (B) Flow-cytometry histogram of PE-conjugated D1D2-Ig⍺tp staining of CD4^+ T cells alone (blue) or in the presence of either the anti ⍺4 mAb 2B4 (green) or an irrelevant mAb (black-dashed). Cells stained with PE-conjugated MicA-Ig⍺tp (red), along with unstained cells (grey) are included. X-axis indicates geometric mean fluorescence intensity (gMFI). (C) 293T cells untransfected or co-transfected with ⍺4 and β7 expression vectors stained with either PE-D1D2-Ig⍺tp or PE-MAdCAM-Ig in the absence or presence of the ⍺4 antagonist FG. Y-axis indicates gMFI. (D) CD4^+ T cells stained with anti CD45RO (x-axis) anti β7 (y-axis) (left), or with anti CD45RO (x-axis) and D1D2-Ig⍺tp (y-axis) (right). % cells in each quadrant, as indicated. (E) CD4^+ T cells stained as in B, with lower MW forms of oligomerized D1D2-Ig⍺tp. Left Y-axis indicates gMFI (bars), right Y-axis indicates relative MW (kDa) (•). […]
Cells were stained with fluoresceine conjugated mAbs or recombinant proteins using standard procedures preceded by Fc receptor blocking with human IgG. […] Data were acquired using a FACSCanto II (BD Biosciences) and analyzed with FlowJo software (BD Biosciences). […]

“MAdCAM-Ig: recombinant MAdCAM-1 Ig fusion, R&D Systems [reference compound]” gave a KA (⍺4β7) of 1.12e+08 M⁻¹, a ka (⍺4β7) of 96700 M⁻¹ s⁻¹ and a kd (⍺4β7) of 0.000863 s⁻¹. For the same substance, the “binding to ⍺4β7 (in words)” value (⍺4β7 on RPMI8866 cells) was “failed to bind”.
